Source: patent US11464749B2, “Bismuth-thiol compositions and methods of use” (Microbion Corporation, priority 2018, dated 2022)
Converted amounts (≈) assume the structure as drawn. One block for each compound: values may come before it.

Assays:
S. agalactiae = test: Broth microdilution MIC (Example 11); conditions: Streptococcus agalactiae
S. pyogenes = test: Broth microdilution MIC (Example 11); conditions: Streptococcus pyogenes
[1] = tested on: vancomycin-intermediate Staphylococcus aureus (VISA); test: Broth microdilution MIC (Example 12); conditions: Staphylococcus aureus, NRS13 / VISA, read-out: MIC values
S. pneumoniae = test: Broth microdilution MIC (Example 11); conditions: Streptococcus pneumoniae
[2] = tested on: Staphylococcus aureus (MRSA); test: Broth microdilution MIC (Example 11)
Klebsiella pneumoniae = test: Broth microdilution MIC (Example 12)
Escherichia coli = test: Broth microdilution MIC (Example 12)
Acinetobacter baumannii = test: Broth microdilution MIC (Example 12)
Pseudomonas aeruginosa = test: Broth microdilution MIC (Example 12)
E. faecalis = test: Broth microdilution MIC (Example 11); conditions: Enterococcus faecalis, VRE, E. faecalis MMX 8962; VRE Lev^R Cip^R Ery^R
[3] = MRSA, S. aureus MMX 6311, MRSA Lev^R Cip^R CC^R Ery^R Ox^R

Structure (SMILES): CN[C@H](CC(C)C)C(=O)N[C@H]1C(=O)N[C@@H](CC(N)=O)C(=O)N[C@H]2C(=O)N[C@H]3C(=O)N[C@H](C(=O)N[C@H](C(=O)O)c4cc(O)cc(O)c4-c4cc3ccc4O)[C@H](O)c3ccc(c(Cl)c3)Oc3cc2cc(c3O[C@@H]2O[C@H](CO)[C@@H](O)[C@H](O)[C@H]2O[C@H]2C[C@](C)(N)[C@H](O)[C@H](C)O2)Oc2ccc(cc2Cl)[C@H]1O [vancomycin]
- MIC (S. agalactiae; S. agalactiae MMX 3741, ERY^R CC^R): 0.5 µg/mL (≈ 0.345 µM)
- MIC (S. agalactiae; S. agalactiae MMX 3743, ERY^R CC^R): 0.5 µg/mL (≈ 0.345 µM)
- MIC (S. agalactiae; S. agalactiae MMX 4077, ERY^R CC^R): 0.5 µg/mL (≈ 0.345 µM)
- MIC (S. agalactiae; S. agalactiae MMX 4079, ERY^R CC^R Pen^R MEM^R): 2 µg/mL (≈ 1.38 µM)
- MIC (S. agalactiae; S. agalactiae MMX 4086, ERY^R CC^R): 1 µg/mL (≈ 0.69 µM)
- MIC (S. pyogenes): 0.5 µg/mL (≈ 0.345 µM)
- MIC [1]: 2 µg/mL (≈ 1.38 µM)
- MIC (S. pneumoniae; ATCC49619, S. pneumoniae MMX 6837 (ATCC 49619), QC): 0.25 µg/mL (≈ 0.173 µM)
- MIC (S. pneumoniae; S. pneumoniae MMX 880, Lev^R SXT^R CC^R Ery^R Pen^R): 0.5 µg/mL (≈ 0.345 µM)
- MIC (S. pneumoniae; S. pneumoniae MMX 937, Mem^R SXT^R CC^R Ery^R Pen^R): 0.5 µg/mL (≈ 0.345 µM)
- MIC (S. pneumoniae; S. pneumoniae MMX 3959, CC^R Ery^R): 0.5 µg/mL (≈ 0.345 µM)
- MIC (S. pneumoniae; S. pneumoniae MMX 5440, Mem^R SXT^R CC^R Ery^R Pen^R): 0.25 µg/mL (≈ 0.173 µM)
- MIC (S. pneumoniae; S. pneumoniae MMX 5445, Mem^R SXT^R CC^R Ery^R Pen^R): 0.25 µg/mL (≈ 0.173 µM)
- MIC (S. pneumoniae; S. pneumoniae MMX 8133, Mem^R SXT^R CC^R Ery^R Pen^R): 0.25 µg/mL (≈ 0.173 µM)
- MIC ([2]; ATCC29213|MRSA|MSSA, S. aureus MMX 101 (ATCC 29213), QC, MSSA): 1 µg/mL (≈ 0.69 µM)
- MIC ([2]; MRSA, S. aureus MMX 5373, MRSA Lev^R Cip^R CC^R Ery^R Ox^R): 2 µg/mL (≈ 1.38 µM)
- MIC [2, 3]: 0.25 µg/mL (≈ 0.173 µM)
- MIC ([2]; MRSA, S. aureus MMX 9203, MRSA Lev^R Cip^R Ery^R Ox^R): 2 µg/mL (≈ 1.38 µM)
- MIC ([2]; MRSA, S. aureus MMX 9204, MRSA Lev^R Cip^R Ery^R Ox^R): 1 µg/mL (≈ 0.69 µM)
- MIC ([2]; MRSA, S. aureus MMX 9205, MRSA Lev^R Cip^R CC^R Ery^R Ox^R): 2 µg/mL (≈ 1.38 µM)

- MIC (Klebsiella pneumoniae; K. pneumoniae ATCC BAA-1705, ESBL/KPC): >64 µg/mL
- MIC (Klebsiella pneumoniae; K. pneumoniae ATCC BAA-1705, QC organism (Table 102)): >64 µg/mL
- MIC (Klebsiella pneumoniae; K. pneumoniae CDC 112, KPC): >64 µg/mL
- MIC (Klebsiella pneumoniae; K. pneumoniae CDC 113, ESBL/KPC): >64 µg/mL
- MIC (Klebsiella pneumoniae; K. pneumoniae CDC 115, ESBL/KPC): >64 µg/mL
- MIC (Klebsiella pneumoniae; K. pneumoniae CDC 120, ESBL/KPC): >64 µg/mL
- MIC (Klebsiella pneumoniae; K. pneumoniae CDC 126, ESBL/KPC): 4 µg/mL (≈ 7.32 µM)
- MIC (Klebsiella pneumoniae; K. pneumoniae CDC 129, ESBL/KPC): >64 µg/mL
- MIC (Klebsiella pneumoniae; K. pneumoniae CDC 135, ESBL/VIM): >64 µg/mL
- MIC (Klebsiella pneumoniae; K. pneumoniae CDC 138, ESBL/NDM): >64 µg/mL
- MIC (Klebsiella pneumoniae; K. pneumoniae CDC 158, ESBL/NDM/OXA): >64 µg/mL
- MIC (Klebsiella pneumoniae; K. pneumoniae MMX 9029, ESBL): 4 µg/mL (≈ 7.32 µM)
- MIC (Escherichia coli; E. coli ATCC 35218, ESBL): 0.12 µg/mL (≈ 0.22 µM)
- MIC (Escherichia coli; E. coli ATCC 35218, QC organism (Table 102)): 0.12 µg/mL (≈ 0.22 µM)
- MIC (Escherichia coli; E. coli ATCC BAA-2471, NDM): >64 µg/mL
- MIC (Escherichia coli; E. coli CDC 114, ESBL/KPC): >64 µg/mL
- MIC (Escherichia coli; E. coli CDC 118, ESBL/NDM): >64 µg/mL
- MIC (Escherichia coli; E. coli CDC 435, NDM): >64 µg/mL
- MIC (Escherichia coli; E. coli CDC 451, KPC): 64 µg/mL (≈ 117 µM)
- MIC (Escherichia coli; E. coli CDC 503, ESBL/NDM): >64 µg/mL
- MIC (Escherichia coli; E. coli MMX 5745, KPC): 32 µg/mL (≈ 58.5 µM)
- MIC (Escherichia coli; E. coli MMX 5755, ESBL): >64 µg/mL
- MIC (Escherichia coli; E. coli MMX 5756, ESBL): >64 µg/mL
- MIC (Escherichia coli; E. coli MMX 5758, ESBL): 16 µg/mL (≈ 29.3 µM)
- MIC (Acinetobacter baumannii; A. baumannii CDC 273, ESBL/OXA): 64 µg/mL (≈ 117 µM)
- MIC (Acinetobacter baumannii; A. baumannii CDC 274, ESBL/OXA): >64 µg/mL
- MIC (Acinetobacter baumannii; A. baumannii CDC 275, ESBL/OXA): >64 µg/mL
- MIC (Acinetobacter baumannii; A. baumannii CDC 277, ESBL/OXA): >64 µg/mL
- MIC (Acinetobacter baumannii; A. baumannii CDC 284, ESBL/OXA): 64 µg/mL (≈ 117 µM)
- MIC (Acinetobacter baumannii; A. baumannii CDC 307, OXA): 64 µg/mL (≈ 117 µM)
- MIC (Acinetobacter baumannii; A. baumannii CDC 308, ESBL/OXA): 64 µg/mL (≈ 117 µM)
- MIC (Acinetobacter baumannii; A. baumannii CDC 311, OXA): >64 µg/mL
- MIC (Acinetobacter baumannii; A. baumannii CDC 312, OXA): >64 µg/mL
- MIC (Acinetobacter baumannii; A. baumannii CDC 313, ESBL/OXA): >64 µg/mL
- MIC (Acinetobacter baumannii; A. baumannii NCTC 13304, OXA): >64 µg/mL
- MIC (Pseudomonas aeruginosa; P. aeruginosa CDC 230, VIM/OXA): 64 µg/mL (≈ 117 µM)
- MIC (Pseudomonas aeruginosa; P. aeruginosa CDC 231, KPC/OXA): >64 µg/mL
- MIC (Pseudomonas aeruginosa; P. aeruginosa CDC 241, IMP/OXA): >64 µg/mL
- MIC (Pseudomonas aeruginosa; P. aeruginosa CDC 246, NDM/OXA): >64 µg/mL
- MIC (Pseudomonas aeruginosa; P. aeruginosa CDC 250, NDM/OXA): >64 µg/mL
- MIC (Pseudomonas aeruginosa; P. aeruginosa CDC 356, KPC): 64 µg/mL (≈ 117 µM)
- MIC (Pseudomonas aeruginosa; P. aeruginosa CDC 439, IMP): >64 µg/mL
- MIC (Pseudomonas aeruginosa; P. aeruginosa CDC 444, VIM): 32 µg/mL (≈ 58.5 µM)
- MIC (Pseudomonas aeruginosa; P. aeruginosa CDC 457, VIM): >64 µg/mL
- MIC (Pseudomonas aeruginosa; P. aeruginosa CDC 516, KPC/AmpC): 64 µg/mL (≈ 117 µM)
- MIC (Pseudomonas aeruginosa; P. aeruginosa CDC 518, KPC/AmpC): 32 µg/mL (≈ 58.5 µM)
Structure (SMILES): CC(C)(O/N=C(\C(=O)N[C@@H]1C(=O)N2C(C(=O)[O-])=C(C[n+]3ccccc3)CS[C@H]12)c1csc(N)n1)C(=O)O [CAZ]

Structure (SMILES): Cc1onc(-c2ccccc2)c1C(=O)N[C@@H]1C(=O)N2[C@@H]1SC(C)(C)[C@@H]2C(=O)O [Oxacillin]
- MIC (E. faecalis): 16 µg/mL (≈ 39.9 µM)
- MIC [2, 3]: 32 µg/mL (≈ 79.7 µM)
